Source: ChEMBL document CHEMBL4304792, “Cinnamonitrile Adjuvants Restore Susceptibility to β-Lactams against Methicillin-Resistant Staphylococcus aureus” (ACS Med Chem Lett, 2019)
Converted amounts (≈) assume the structure as drawn.

What was measured:
[1] = system: Staphylococcus aureus; assay: Potentiation of oxacillin induced antibacterial activity against Staphylococcus aureus NRS70 assessed as oxacillin MIC at 20 uM measured after 16 to 20 hrs in presence of 2% NaCl by microdilution broth method (reference value: 64 mg/L); assay type: functional
[2] = system: Staphylococcus aureus; assay: Antibacterial activity against Staphylococcus aureus NRS70 measured after 16 to 20 hrs in absence of 2% NaCl by microdilution broth method

Row | Structure (SMILES) | MIC [1] | MIC [2]
1 | CC(C)NC(=O)c1ccc(Cc2ccc(F)c(/C=C(\C#N)S(C)(=O)=O)c2)cc1 | 64 µg/mL | ≥ 64 µg/mL
2 | N#C/C(=C\c1cccc(Oc2ccc(Cl)c(Cl)c2)c1)c1nc2ccccc2s1 | 64 µg/mL | ≥ 64 µg/mL
3 | N#CC(C#N)=Cc1ccc(Oc2ccc(Cl)cc2)cc1 | 64 µg/mL | 32 µg/mL (≈ 114 µM)
4 | N#CC(C#N)=Cc1cccc(Oc2ccc(Cl)c(Cl)c2)c1 | 64 µg/mL | 32 µg/mL (≈ 102 µM)
5 | N#CC(C#N)=Cc1cccc(Oc2ccc(Cl)nn2)c1 | 64 µg/mL | ≥ 64 µg/mL
6 | N#CC(C#N)=Cc1cccc(Oc2cc(Cl)cc(Cl)c2)c1 | 64 µg/mL | 16 µg/mL (≈ 50.8 µM)
7 | COc1ccc(OC)c(Cc2cccc(C=C(C#N)C#N)c2)c1 | 64 µg/mL | ≥ 64 µg/mL
8 | N#CC(C#N)=Cc1cccc(Oc2ncc(Cl)c(Cl)n2)c1 | 64 µg/mL | ≥ 64 µg/mL
9 | Cc1ccc(C(=O)/C(C#N)=C/c2cccc(Oc3ccc(Cl)c(Cl)c3)c2)cc1 | 64 µg/mL | ≥ 64 µg/mL
10 | N#CC(C#N)=Cc1cccc(Cc2cc(F)c(F)cc2F)c1 | 64 µg/mL | ≥ 64 µg/mL
11 | CS(=O)(=O)/C(C#N)=C/c1cc(Cc2ccc(OC(F)(F)F)cc2)ccc1F | 64 µg/mL | ≥ 64 µg/mL
12 | COc1ccc(Cc2ccc(F)c(/C=C(\C#N)S(C)(=O)=O)c2)cc1C(F)(F)F | 64 µg/mL | ≥ 64 µg/mL
13 | N#C/C(=C\c1cccc(Oc2ccc(Cl)c(Cl)c2)c1)C(=O)O | 64 µg/mL | ≥ 64 µg/mL
14 | N#CC(C#N)Cc1cccc(Oc2ccc(Cl)c(Cl)c2)c1 | 64 µg/mL | 32 µg/mL (≈ 101 µM)
15 | N#CC(C#N)=Cc1cccc(Cc2cccc(Cl)c2)c1 | 64 µg/mL | ≥ 64 µg/mL
16 | N#CC(C#N)=Cc1cccc(Oc2cccc(C(F)(F)F)c2)c1 | 64 µg/mL | 32 µg/mL (≈ 102 µM)

Row | Structure (SMILES) | MIC [1] | MIC [2]
17 | N#C/C(=C\c1cccc(Oc2ccc(Cl)c(Cl)c2)c1)c1ccncc1 | 64 µg/mL | ≥ 64 µg/mL
18 | N#C/C(=C\c1cccc(Oc2ccc(Cl)c(Cl)c2)c1)C(N)=O | 64 µg/mL | 8 µg/mL (≈ 24 µM)
19 | N#CC(C#N)=Cc1cccc(S(=O)(=O)c2ccc(Cl)c(Cl)c2)c1 | 64 µg/mL | 16 µg/mL (≈ 44 µM)
20 | COc1ccc(Cc2ccc(OC(F)(F)F)c(/C=C(\C#N)S(C)(=O)=O)c2)cc1OC | 64 µg/mL | ≥ 64 µg/mL
21 | N#CC(C#N)=Cc1cccc(Oc2ccc(Cl)cc2)c1 | 64 µg/mL | 32 µg/mL (≈ 114 µM)
22 | N#CC(C#N)=Cc1cccc(Cc2ccc(Cl)c(Cl)c2)c1 | 64 µg/mL | ≥ 64 µg/mL
23 | N#C/C(=C\c1cccc(Oc2ccc(Cl)c(Cl)c2)c1)c1ccccn1 | 64 µg/mL | ≥ 64 µg/mL
24 | CS(=O)(=O)/C(C#N)=C/c1cc(Cc2cccc(OC(F)(F)F)c2)ccc1F | 64 µg/mL | ≥ 64 µg/mL
25 | CS(=O)(=O)/C(C#N)=C/c1cc(Cc2ccc(F)c(F)c2)ccc1F | 64 µg/mL | ≥ 64 µg/mL
26 | Cc1ccc(Oc2cccc(C=C(C#N)C#N)c2)cc1 | 64 µg/mL | ≥ 64 µg/mL
27 | N#CC(C#N)=Cc1cccc(Cc2ccc(Cl)c(F)c2)c1 | 64 µg/mL | ≥ 64 µg/mL
28 | CS(=O)(=O)/C(C#N)=C/c1cc(Cc2ccc(C(F)(F)F)c(F)c2)ccc1F | 64 µg/mL | 32 µg/mL (≈ 79.7 µM)
29 | CS(=O)(=O)/C(C#N)=C/c1cc(Cc2ccc(F)c(C(F)(F)F)c2)ccc1F | 64 µg/mL | ≥ 64 µg/mL
30 | CS(=O)(=O)/C(C#N)=C/c1cc(-c2ccnc3ccccc23)ccc1F | 64 µg/mL | ≥ 64 µg/mL
31 | CS(=O)(=O)/C(C#N)=C/c1cc(Cc2cccc(C(F)(F)F)c2)ccc1F | 64 µg/mL | ≥ 64 µg/mL

Continued by falling MIC [1], values first:

Row | MIC [1] | MIC [2] | Structure (SMILES)
32 | 64 µg/mL | ≥ 64 µg/mL | N#C/C(=C\c1cccc(Oc2ccc(Cl)c(Cl)c2)c1)c1cccs1
33 | 64 µg/mL | 16 µg/mL (≈ 37.5 µM) | COc1ccc(Cc2ccc(Cl)c(Cl)c2)c(OC)c1/C=C(\C#N)S(C)(=O)=O
34 | 64 µg/mL | ≥ 64 µg/mL | COc1ccc(Oc2cccc(C=C(C#N)C#N)c2)cc1
35 | 64 µg/mL | 32 µg/mL (≈ 75.2 µM) | CS(=O)(=O)/C(C#N)=C/c1cc(Cc2ccc3c(c2)OCO3)ccc1OC(F)(F)F
36 | 64 µg/mL | ≥ 64 µg/mL | COc1ccc(C=C(C#N)C#N)cc1Oc1ccc(Cl)c(Cl)c1
37 | 64 µg/mL | ≥ 64 µg/mL | N#CC(C#N)=Cc1cccc(Oc2ccc(F)cc2)c1
38 | 64 µg/mL | 32 µg/mL (≈ 83.5 µM) | CS(=O)(=O)/C(C#N)=C/c1cc(Cc2ccc(C(F)(F)F)cc2)ccc1F
39 | 64 µg/mL | ≥ 64 µg/mL | CS(=O)(=O)/C(C#N)=C/c1cc(Cc2ccc(SC(F)(F)F)cc2)ccc1F
40 | 64 µg/mL | ≥ 64 µg/mL | CS(=O)(=O)/C(C#N)=C/c1cc(-c2ccc3ccccc3n2)ccc1F
41 | 64 µg/mL | ≥ 64 µg/mL | CS(=O)(=O)/C(C#N)=C/c1cc(-c2cnc3ccccc3n2)ccc1F
42 | 64 µg/mL | 32 µg/mL (≈ 130 µM) | N#CC(C#N)=Cc1cccc(Oc2ccccc2)c1
43 | 64 µg/mL | ≥ 64 µg/mL | N#CC(C#N)=Cc1cccc(Cc2ccc(F)c(Cl)c2)c1
44 | 64 µg/mL | ≥ 64 µg/mL | CC(=C(C#N)C#N)c1cccc(Cc2ccc(Cl)c(Cl)c2)c1
45 | 64 µg/mL | 16 µg/mL (≈ 43.4 µM) | CS(=O)(=O)/C(C#N)=C/c1cccc(Oc2ccc(Cl)c(Cl)c2)c1
46 | 64 µg/mL | ≥ 64 µg/mL | N#CC(C#N)=Cc1cccc(Sc2ccc(Cl)c(Cl)c2)c1
47 | 64 µg/mL | ≥ 64 µg/mL | Cc1ccc(S(=O)(=O)Nc2cccc(C=C(C#N)C#N)c2)cc1
48 | 16 µg/mL | ≥ 64 µg/mL | N#CC(C#N)=Cc1cccc(C(=O)Nc2ccc(Cl)c(Cl)c2)c1
49 | 16 µg/mL | 32 µg/mL (≈ 73.9 µM) | N#C/C(=C\c1cc(-c2ccc(Cl)c(Cl)c2)ccc1F)S(=O)(=O)c1ccccn1
50 | 16 µg/mL | 32 µg/mL (≈ 90.6 µM) | CS(=O)(=O)/C(C#N)=C/c1cccc(-c2ccc(Cl)c(Cl)c2)n1
51 | 16 µg/mL | ≥ 64 µg/mL | CS(=O)(=O)/C(C#N)=C/c1cc(Cc2ccc(Cl)c(Cl)c2)ccc1N1CCOCC1
52 | 16 µg/mL | ≥ 64 µg/mL | CCOc1ccc(Cc2ccc(Cl)c(Cl)c2)cc1/C=C(\C#N)S(C)(=O)=O
53 | 8 µg/mL | 32 µg/mL (≈ 80.7 µM) | COc1c(/C=C(\C#N)S(C)(=O)=O)cccc1Cc1ccc(Cl)c(Cl)c1
54 | 4 µg/mL | 8 µg/mL (≈ 24.2 µM) | N#CC(C#N)=Cc1cc(Cc2ccc(Cl)c(Cl)c2)ccc1F
55 | 4 µg/mL | 32 µg/mL (≈ 80.7 µM) | COc1ccc(Cc2ccc(Cl)c(Cl)c2)cc1/C=C(\C#N)S(C)(=O)=O
56 | 4 µg/mL | ≥ 64 µg/mL | COc1ccc(Cc2ccc(Cl)c(Cl)c2)cc1C=C(C#N)C#N
57 | 2 µg/mL | 8 µg/mL (≈ 20.8 µM) | CS(=O)(=O)/C(C#N)=C/c1cccc(Cc2ccc(Cl)c(Cl)c2)c1F
58 | 2 µg/mL | 8 µg/mL (≈ 24.2 µM) | N#CC(C#N)=Cc1cccc(Cc2ccc(Cl)c(Cl)c2)c1F
59 | 1 µg/mL | ≥ 64 µg/mL | N#C/C(=C\c1cc(Cc2ccc(Cl)c(Cl)c2)ccc1F)C(=O)C1CC1
